#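 The compound was tested at five concentrations on cells cultured in 96-well plates, with a 48-hour exposure period. TGI is the concentration that stops growth completely.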
# Key:
# Assay in all cases: NCI anticancer screen, dose series, 48 h
# [1] = test system: MDA-N
# [2] = test system: M19-MEL melanoma
# [3] = test system: OVCAR-5 ovarian
# [4] = test system: XF 498 CNS
# [5] = test system: HOP-18 NSCLC
# [6] = test system: SNB-78 CNS
# [7] = test system: KM20L2 colon
# [8] = test system: RXF-631 renal
# [9] = test system: 786-0 renal
# [10] = test system: DMS 273 small cell lung
# [11] = test system: LXFL 529 NSCLC
# [12] = test system: DLD-1 colon
# [13] = test system: DMS 114 small cell lung
compound,measurement,setting,value
O=C1C=CC(=O)c2c1ccc1c3ccccc3n(-c3ccccc3)c21,TGI,[1],18.3 µM
same,TGI,[2],36.1 µM
same,TGI,[3],31.7 µM
same,TGI,[4],20.1 µM
same,TGI,[5],20.7 µM
same,TGI,[6],53.8 µM
same,TGI,[7],36.9 µM
same,TGI,[8],82.2 µM
same,TGI,[9],33 µM
same,TGI,[10],32.1 µM
same,TGI,[11],10.9 µM
same,TGI,[12],6.99 µM
same,TGI,[13],40.4 µM
CC(=O)C1Cn2c(=O)c3cc4ccccc4cc3c(=O)n2C=C1C (configuration not stated),TGI,[2],> 100 µM
same,TGI,[3],> 100 µM
same,TGI,[4],> 100 µM
same,TGI,[6],> 100 µM
same,TGI,[7],> 100 µM
same,TGI,[8],> 100 µM
same,TGI,[9],> 100 µM
same,TGI,[10],> 100 µM
same,TGI,[11],> 100 µM
same,TGI,[12],> 100 µM
same,TGI,[13],> 100 µM
N#Cc1cc([N+](=O)[O-])ccc1NC(=O)/C(=N\NC(=O)c1ccncc1)C(c1cnc2ccc([N+](=O)[O-])cc2n1)[N+](=O)[O-] (configuration not stated),TGI,[1],1.26 µM
same,TGI,[2],1.69 µM
same,TGI,[3],22.4 µM
same,TGI,[4],3.17 µM
same,TGI,[5],2.87 µM
same,TGI,[6],21.6 µM
same,TGI,[7],25.1 µM
same,TGI,[8],5.13 µM
same,TGI,[9],6.16 µM
same,TGI,[10],6.59 µM
same,TGI,[11],3.81 µM
same,TGI,[13],3.1 µM
O=c1c2ccccc2nc2n1-c1ccccc1SC2,TGI,[2],> 100 µM
same,TGI,[3],> 100 µM
same,TGI,[4],91.3 µM
same,TGI,[6],> 100 µM
same,TGI,[7],> 100 µM
same,TGI,[8],> 100 µM
same,TGI,[9],> 100 µM
same,TGI,[10],> 100 µM
same,TGI,[11],> 100 µM
same,TGI,[12],> 100 µM
same,TGI,[13],> 100 µM
O=C(O)COc1ccc(C(=O)/C(SS/C(C(=O)c2ccc(OCC(=O)O)c(Cl)c2Cl)=C2\C=C(c3ccc(Cl)cc3)SS2)=C2/C=C(c3ccc(Cl)cc3)SS2)c(Cl)c1Cl,TGI,[2],20.6 µM
same,TGI,[3],> 100 µM
same,TGI,[5],23 µM
same,TGI,[6],25.5 µM
same,TGI,[7],54.5 µM
same,TGI,[8],> 100 µM
same,TGI,[9],26.3 µM
same,TGI,[10],32.7 µM
same,TGI,[11],14.4 µM
same,TGI,[12],24.6 µM
O=C1C=CC2(C=C1)CCNC1=C2C(=O)c2ccccc2C1=O,TGI,[2],> 100 µM
same,TGI,[3],> 100 µM
same,TGI,[4],> 100 µM
same,TGI,[7],> 100 µM
same,TGI,[8],> 100 µM
same,TGI,[9],> 100 µM
same,TGI,[10],> 100 µM
same,TGI,[11],> 100 µM
same,TGI,[12],> 100 µM
same,TGI,[13],> 100 µM
Cc1nc(N2N=C(c3ccc(Cl)cc3)CCC2=O)sc1[N+](=O)[O-],TGI,[2],> 100 µM
same,TGI,[4],> 100 µM
same,TGI,[5],> 100 µM
same,TGI,[6],> 100 µM
same,TGI,[7],> 100 µM
same,TGI,[9],> 100 µM
same,TGI,[10],> 100 µM
same,TGI,[11],> 100 µM
same,TGI,[12],> 100 µM
same,TGI,[13],> 100 µM
